Measurements as given in PubChem BioAssay (NCI).
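Results reflect a 48-hour exposure of cells in 96-well plates to compound at five concentrations. GI50: concentration for 50% inhibition of growth. TGI is the concentration that stops growth completely.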

Assays:
Assay in all cases: NCI tumour cell line growth inhibition, 48 h
[1] = test system: SN12K1 renal
[2] = test system: P388 leukemia
[3] = test system: HOP-18 NSCLC
[4] = test system: LXFL 529 NSCLC
[5] = test system: P388/ADR leukemia
[6] = test system: XF 498 CNS
[7] = test system: RXF-631 renal

Structure (SMILES)	TGI [1]	TGI [2]	TGI [3]	TGI [4]	TGI [5]	TGI [6]	TGI [7]	GI50 [1]	GI50 [6]
Cc1ccc2[nH]c3c(C)c4ccncc4c(C)c3c2c1	2.29 µM	3.09 µM	4.6 µM	2.42 µM	3.62 µM	3 µM			
CC(=O)c1cccc(NC2C(N)C(NC(=O)N(C)C)(C(C)O)C(C)(O)C2(O)COC(=O)c2c(C)cccc2O)c1 (stereo unspecified)				1.01 µM					
Nc1ccn(C2OC(COP(=O)(O)Oc3ccccc3)C(O)C2O)c(=O)n1 (stereo unspecified)	> 100 µM	15.7 µM	98.1 µM		> 100 µM				
Cc1nc(-c2nc([N+](=O)[O-])c([N+](=O)[O-])[nH]2)cs1				> 100 µM		> 100 µM	> 100 µM		
CC(=O)Oc1c(OC(C)=O)c(-c2ccc(O)c(O)c2)c(O)c(O)c1-c1ccc(O)cc1	> 100 µM		> 100 µM		50 µM	> 100 µM		48.6 µM	46 µM
CCN(CC)CCNc1ccc(C)c2sc3ccc(O)cc3c(=O)c12			5.94 µM	2.54 µM		2.56 µM			
COc1cc(CC2c3cc(OC)c(OC)cc3CCN2C)c(Oc2cc3c(cc2OC)-c2c(OC)c(OC)c(OC)c4c2C(C3)N(C)CC4)cc1OC (stereo unspecified)			31.1 µM	27.1 µM		26.6 µM			
